Measured values published in patent US20230072683A1, “PYRIDO-PYRIMIDIN DERIVATIVES AND PHARMACEUTICAL COMPOSITION, FOR USE IN PREVENTING OR TREATING PI3 KINASE RELATED DISEASES, COMPRISING SAME AS ACTIVE INGREDIENT” (BORYUNG PHARMACEUTICAL CO., LTD, priority 2019, published 2023).
Where two headings read alike, the source gives them in different places.

Key:
[1] = biological target: PI3K-δ (PI3K(p1108/p857) (h)) (Homo sapiens, UniProt O00329); test: Evaluation of inhibitory activity against PI3K-δ (HTRF kinase assay); assay type: biochemical; settings: for inhibition at 0.01 µM: compound concentration 0.01 μM, read-out: EXP_VALUE(% Inhibition) PI3K-δ 0.01 μM; for inhibition at 0.1 µM: read-out: EXP_VALUE(% Inhibition) PI3K-δ 0.1 μM
Outline: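 HTRF read-out (665/620 nm ratio ×10000) used Eu-labelled anti-GST, GST-tagged GRP1 PH domain and streptavidin-allophycocyanin after EDTA/PIP3 stop.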

DNA-PK(h) = DNA-PK(h) (Homo sapiens, UniProt P78527); test: Evaluation of inhibitory activity against DNA-PK (HTRF kinase assay, GST-cMyc-p53 substrate); assay type: biochemical; settings: for inhibition at 0.01 µM: compound concentration 0.01 μM, read-out: EXP_VALUE(% Inhibition) DNA-PK(h) 0.01 μM; for inhibition at 0.1 µM: read-out: EXP_VALUE(% Inhibition) DNA-PK(h) 0.1 μM
Outline: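 p53 Ser15 phosphorylation by human DNA-PK was measured by time-resolved FRET ratio (665/620 nm ×10000) using Eu-labelled anti-phospho-Ser15 and d2 anti-GST antibodies. Substrate GST-cMyc-p53 at 50 μM; Mg/ATP-initiated, 30 min at room temperature, EDTA stop.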

Chain of PI3K-δ (PI3K(p1108/p857) (h)) (O00329 whole entry, the tested form may be a part): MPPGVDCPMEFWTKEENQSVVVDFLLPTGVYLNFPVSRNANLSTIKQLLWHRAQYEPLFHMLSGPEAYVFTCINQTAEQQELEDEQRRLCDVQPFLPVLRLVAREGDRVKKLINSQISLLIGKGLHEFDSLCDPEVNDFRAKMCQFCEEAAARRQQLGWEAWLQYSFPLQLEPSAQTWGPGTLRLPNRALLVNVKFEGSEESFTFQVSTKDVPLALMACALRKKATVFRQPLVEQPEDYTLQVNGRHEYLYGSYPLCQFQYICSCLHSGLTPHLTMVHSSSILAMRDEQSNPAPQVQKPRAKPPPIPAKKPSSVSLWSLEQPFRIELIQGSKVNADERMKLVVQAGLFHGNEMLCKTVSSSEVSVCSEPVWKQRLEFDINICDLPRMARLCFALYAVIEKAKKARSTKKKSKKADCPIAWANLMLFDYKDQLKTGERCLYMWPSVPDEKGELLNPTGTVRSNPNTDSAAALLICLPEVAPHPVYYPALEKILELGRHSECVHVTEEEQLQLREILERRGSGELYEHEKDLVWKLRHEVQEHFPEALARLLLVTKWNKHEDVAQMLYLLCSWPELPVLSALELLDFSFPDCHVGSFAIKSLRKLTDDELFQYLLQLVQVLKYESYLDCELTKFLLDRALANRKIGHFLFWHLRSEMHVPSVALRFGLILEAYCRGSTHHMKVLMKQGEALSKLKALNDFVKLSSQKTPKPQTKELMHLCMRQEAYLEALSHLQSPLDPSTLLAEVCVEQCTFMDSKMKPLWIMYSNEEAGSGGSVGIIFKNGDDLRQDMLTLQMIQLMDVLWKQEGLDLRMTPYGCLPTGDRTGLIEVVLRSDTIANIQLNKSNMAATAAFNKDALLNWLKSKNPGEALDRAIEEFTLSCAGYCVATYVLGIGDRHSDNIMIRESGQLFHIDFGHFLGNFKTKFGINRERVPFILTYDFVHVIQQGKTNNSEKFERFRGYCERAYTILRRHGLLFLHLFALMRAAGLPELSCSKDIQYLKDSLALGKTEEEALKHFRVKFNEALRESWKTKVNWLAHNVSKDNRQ
Chain of PI3K-δ (PI3K(p1108/p857) (h)) (P27986 whole entry partner, the tested form may be a part): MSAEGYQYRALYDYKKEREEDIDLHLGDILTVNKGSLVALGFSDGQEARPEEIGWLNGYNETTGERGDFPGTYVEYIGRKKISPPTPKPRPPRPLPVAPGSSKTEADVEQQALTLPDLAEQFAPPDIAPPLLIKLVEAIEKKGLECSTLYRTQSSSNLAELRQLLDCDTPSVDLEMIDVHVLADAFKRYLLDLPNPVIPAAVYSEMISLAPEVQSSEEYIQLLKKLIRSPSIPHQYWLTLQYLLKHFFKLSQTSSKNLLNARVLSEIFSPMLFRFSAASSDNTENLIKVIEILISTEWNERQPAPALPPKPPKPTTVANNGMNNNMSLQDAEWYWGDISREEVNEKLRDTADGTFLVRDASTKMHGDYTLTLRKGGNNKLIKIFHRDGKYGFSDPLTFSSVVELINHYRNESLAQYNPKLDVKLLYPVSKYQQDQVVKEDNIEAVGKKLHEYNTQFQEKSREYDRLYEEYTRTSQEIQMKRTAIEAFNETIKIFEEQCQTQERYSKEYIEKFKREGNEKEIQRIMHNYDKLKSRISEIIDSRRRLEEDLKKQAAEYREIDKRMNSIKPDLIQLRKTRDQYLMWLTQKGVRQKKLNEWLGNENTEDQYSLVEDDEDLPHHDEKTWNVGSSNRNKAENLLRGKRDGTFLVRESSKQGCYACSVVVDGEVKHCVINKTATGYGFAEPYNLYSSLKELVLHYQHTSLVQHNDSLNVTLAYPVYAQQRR

| inhibition at 0.01 µM [1] | inhibition at 0.01 µM (DNA-PK(h)) | inhibition at 0.1 µM ([1]; compound at 0.1 μM) | inhibition at 0.1 µM (DNA-PK(h); compound at 0.1 μM) | inhibition at 0.1 µM ([1]; compound concentration 0.1 μM) | inhibition at 0.1 µM (DNA-PK(h); compound concentration 0.1 μM) | Compound |
| --- | --- | --- | --- | --- | --- | --- |
| 70% | 99% |  |  |  |  | C[C@H](Nc1ncnc2[nH]ccc(=O)c12)c1c(Cl)c2cccc(-c3ccc(-c4nccs4)cc3)c2c(=O)n1-c1ccccc1 [Example 29, (S)-4-((1-(4-chloro-1-oxo-2-phenyl-8-(4-(thiazol-2-yl)phenyl)-1,2-dihydroisoquinolin-3-yl)ethyl)amino)pyrido[2,3-d]pyrimidin-5(8H)-one] |
| 75% | 44% |  |  | 100% | 77% | C[C@H](Nc1ncnc2[nH]ccc(=O)c12)c1c(Cl)c2cccc(-c3ccc(C(F)(F)F)cc3Cl)c2c(=O)n1-c1ccccc1 [Example 256, (S)-4-((1-(4-chloro-8-(2-chloro-4-(trifluoromethyl)phenyl)-1-oxo-2-phenyl-1,2-dihydroisoquinolin-3-yl)ethyl)amino)pyrido[2,3-d]pyrimidin-5(8H)-one] |
| 63% | 16% |  |  | 95% | 66% | C[C@H](Nc1ncnc2[nH]ccc(=O)c12)c1c(Cl)c2cccc(-c3cc(F)cc(Cl)c3)c2c(=O)n1-c1ccccc1 [Example 104, (S)-4-((1-(4-chloro-8-(3-chloro-5-fluorophenyl)-1-oxo-2-phenyl-1,2-dihydroisoquinolin-3-yl)ethyl)amino)pyrido[2,3-d]pyrimidin-5(8H)-one] |
| 78% | 70% |  |  |  |  | CC(=O)Nc1ccc(-c2cccc3c(Cl)c([C@H](C)Nc4ncnc5[nH]ccc(=O)c45)n(-c4ccccc4)c(=O)c23)cn1 [Example 202, (S)—N-(5-(4-chloro-1-oxo-3-(1-((5-oxo-5,8-dihydropyrido[2,3-d]pyrimidin-4-yl)amino)ethyl)-2-phenyl-1,2-dihydroisoquinolin-8-yl)pyridin-2-yl) acetamide] |
| 101% | 61% |  |  |  |  | C[C@H](Nc1ncnc2[nH]ccc(=O)c12)c1c(Cl)c2cccc(-c3ccc(C(F)(F)F)nc3)c2c(=O)n1-c1ccccc1 [Example 181, (S)-4-((1-(4-chloro-1-oxo-2-phenyl-8-(6-(trifluoromethyl)pyridin-3-yl)-1,2-dihydroisoquinolin-3-yl)ethyl)amino)pyrido[2,3-d]pyrimidin-5(8H)-one] |
| 95% | 44% |  |  | 96% | 84% | C[C@H](Nc1ncnc2[nH]ccc(=O)c12)c1c(Cl)c2cccc(-c3ccc(F)cc3)c2c(=O)n1-c1ccccc1 [Example 63, (S)-4-((1-(4-chloro-8-(4-fluorophenyl)-1-oxo-2-phenyl-1,2-dihydroisoquinolin-3-yl)ethyl)amino)pyrido[2,3-d]pyrimidin-5(8H)-one] |
| 65% | 54% |  |  | 88% | 90% | Cc1c[nH]c2ccc(-c3cccc4c(Cl)c([C@H](C)Nc5ncnc6[nH]ccc(=O)c56)n(-c5ccccc5)c(=O)c34)cc12 [Example 74, (S)-4-((1-(4-chloro-8-(3-methyl-1H-indol-5-yl)-1-oxo-2-phenyl-1,2-dihydroisoquinolin-3-yl)ethyl)amino)pyrido[2,3-d]pyrimidin-5(8H)-one] |
| 94% | 74% |  |  |  |  | C[C@H](Nc1ncnc2[nH]ccc(=O)c12)c1c(Cl)c2cccc(-c3ccc4c(c3)OCO4)c2c(=O)n1-c1ccccc1 [Example 60, (S)-4-((1-(8-(benzo[d][1,3]dioxol-5-yl)-4-chloro-1-oxo-2-phenyl-1,2-dihydroisoquinolin-3-yl)ethyl)amino)pyrido[2,3-d]pyrimidin-5(8H)-one] |
| 78% | 47% |  |  |  |  | C[C@H](Nc1ncnc2[nH]ccc(=O)c12)c1c(Cl)c2cccc(CO)c2c(=O)n1-c1ccccc1 [Example 355, (S)-4-((1-(4-chloro-8-(hydroxymethyl)-1-oxo-2-phenyl-1,2-dihydroisoquinolin-3-yl)ethyl)amino)pyrido[2,3-d]pyrimidin-5(8H)-one] |

Continued, compound first:

| Compound | inhibition at 0.01 µM [1] | inhibition at 0.01 µM (DNA-PK(h)) | inhibition at 0.1 µM ([1]; compound at 0.1 μM) | inhibition at 0.1 µM (DNA-PK(h); compound at 0.1 μM) | inhibition at 0.1 µM ([1]; compound concentration 0.1 μM) | inhibition at 0.1 µM (DNA-PK(h); compound concentration 0.1 μM) |
| --- | --- | --- | --- | --- | --- | --- |
| C[C@H](Nc1ncnc2[nH]ccc(=O)c12)c1c(Cl)c2cccc(OCc3ccccn3)c2c(=O)n1-c1ccccc1 [Example 430, (S)-4-((1-(4-chloro-1-oxo-2-phenyl-8-(pyridin-2-ylmethoxy)-1,2-dihydroisoquinolin-3-yl)ethyl)amino)pyrido[2,3-d]pyrimidin-5(8H)-one] |  |  | 44% | 68% |  |  |
| C[C@H](Nc1ncnc2[nH]ccc(=O)c12)c1c(Cl)c2cccc([C@@H](C)O)c2c(=O)n1-c1ccccc1 [Example 361, 4-(((S)-1-(4-chloro-8-((R)-1-hydroxyethyl)-1-oxo-2-phenyl-1,2-dihydroisoquinolin-3-yl)ethyl)amino)pyrido[2,3-d]pyrimidin-5(8H)-one] | 56% | 48% |  |  |  |  |
| CC(=O)Nc1cccc2c(Cl)c([C@H](C)Nc3ncnc4[nH]ccc(=O)c34)n(-c3ccccc3)c(=O)c12 [Example 296, (S)—N-(4-chloro-1-oxo-3-(1-((5-oxo-5,8-dihydropyrido[2,3-d]pyrimidin-4-yl)amino)ethyl)-2-phenyl-1,2-dihydroisoquinolin-8-yl) acetamide] | 46% | 30% |  |  |  |  |
| C[C@H](Nc1ncnc2[nH]ccc(=O)c12)c1c(Cl)c2cccc(-c3cnc(N4CCOCC4)cn3)c2c(=O)n1-c1ccccc1 [Example 207, (S)-4-((1-(4-chloro-8-(5-morpholinopyrazin-2-yl)-1-oxo-2-phenyl-1,2-dihydroisoquinolin-3-yl)ethyl)amino)pyrido[2,3-d]pyrimidin-5(8H)-one] | 57% | 52% |  |  |  |  |
| C[C@H](Nc1ncnc2[nH]ccc(=O)c12)c1c(Cl)c2cccc(-c3nnn[nH]3)c2c(=O)n1-c1ccccc1 [Example 352, (S)-4-((1-(4-chloro-1-oxo-2-phenyl-8-(1H-tetrazol-5-yl)-1,2-dihydroisoquinolin-3-yl)ethyl)amino)pyrido[2,3-d]pyrimidin-5(8H)-one] | 27% | 34% |  |  | 75% | 76% |
| C[C@H](Nc1ncnc2[nH]ccc(=O)c12)c1c(Cl)c2cccc(N3CCC(NC(=O)OC(C)(C)C)CC3)c2c(=O)n1-c1ccccc1 [Example 77, tert-butyl(S)-(1-(4-chloro-1-oxo-3-(1-((5-oxo-5,8-dihydropyrido[2,3-d]pyrimidin-4-yl)amino)ethyl)-2-phenyl-1,2-dihydroisoquinolin-8-yl)piperidin-4-yl) carbamate] | 45% | 9% |  |  | 78% | 64% |
| CCSc1cccc2c(Cl)c([C@H](C)Nc3ncnc4[nH]ccc(=O)c34)n(-c3ccccc3)c(=O)c12 [Example 434, (S)-4-((1-(4-chloro-8-(ethylthio)-1-oxo-2-phenyl-1,2-dihydroisoquinolin-3-yl)ethyl)amino)pyrido[2,3-d]pyrimidin-5(8H)-one] |  |  | 8% | 32% |  |  |
| Cc1nc(-c2cccc3c(Cl)c([C@H](C)Nc4ncnc5[nH]ccc(=O)c45)n(-c4ccccc4)c(=O)c23)[nH]c1C [Example 288, (S)-4-((1-(4-chloro-8-(4,5-dimethyl-1H-imidazol-2-yl)-1-oxo-2-phenyl-1,2-dihydroisoquinolin-3-yl)ethyl)amino)pyrido[2,3-d]pyrimidin-5(8H)-one] | 28% | 8% |  |  |  |  |
